System: SW1271 complex spheroids with HUVEC/MSC, growth, % test/control
Experiment: Anticancer human tumor SW1271 cell line growth inhibition [AhR];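 further: spheroids exposed to agents for 7 days before readout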
Settings: for IC50: curve of first compound; for viability, T/C: stronger effect = lower value
Outline: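 Agents were dosed in half-log steps down from roughly clinical Cmax, or from 10 microM where Cmax was unknown, alone and with AhR antagonists. Read-out: percent test/control growth of tumor spheroids containing HUVEC and MSC stromal cells.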

[1] = second compound 0.1 µM, first compound 0.0316 µM
[2] = second compound 0.1 µM, first compound 0.1 µM
[3] = second compound 0.1 µM, first compound 0.316 µM
[4] = second compound 0.1 µM, first compound 1 µM
[5] = second compound 0.1 µM, first compound 3.16 µM
[6] = second compound 0.1 µM, first compound 10 µM
[7] = second compound 0.316 µM, first compound 0.0316 µM
[8] = second compound 0.316 µM, first compound 0.1 µM
[9] = second compound 0.316 µM, first compound 0.316 µM
[10] = second compound 0.316 µM, first compound 1 µM
[11] = second compound 0.316 µM, first compound 3.16 µM
[12] = second compound 0.316 µM, first compound 10 µM
[13] = second compound 1 µM, first compound 0.0316 µM
[14] = second compound 1 µM, first compound 0.1 µM
[15] = second compound 1 µM, first compound 0.316 µM
[16] = second compound 1 µM, first compound 1 µM
[17] = second compound 1 µM, first compound 3.16 µM
[18] = second compound 1 µM, first compound 10 µM
[19] = second compound 3.16 µM, first compound 0.0316 µM
[20] = second compound 3.16 µM, first compound 0.1 µM
[21] = second compound 3.16 µM, first compound 0.316 µM
[22] = second compound 3.16 µM, first compound 1 µM
[23] = second compound 3.16 µM, first compound 3.16 µM
[24] = second compound 3.16 µM, first compound 10 µM
[25] = second compound 10 µM, first compound 0.0316 µM
[26] = second compound 10 µM, first compound 0.1 µM
[27] = second compound 10 µM, first compound 0.316 µM
[28] = second compound 10 µM, first compound 1 µM
[29] = second compound 10 µM, first compound 3.16 µM
[30] = second compound 10 µM, first compound 10 µM

Structure (SMILES) | IC50 (second compound 0.1 µM) [µM] | IC50 (second compound 0.316 µM) [µM] | IC50 (second compound 1 µM) [µM] | IC50 (second compound 3.16 µM) [µM] | IC50 (second compound 10 µM) [µM] | viability, T/C [1] [%] | viability, T/C [2] [%] | viability, T/C [3] [%] | viability, T/C [4] [%] | viability, T/C [5] [%] | viability, T/C [6] [%] | viability, T/C [7] [%] | viability, T/C [8] [%] | viability, T/C [9] [%] | viability, T/C [10] [%] | viability, T/C [11] [%] | viability, T/C [12] [%] | viability, T/C [13] [%] | viability, T/C [14] [%] | viability, T/C [15] [%] | other results
COc1cc(Nc2ncc3c(n2)-c2ccc(Cl)cc2C(c2c(F)cccc2OC)=NC3)ccc1C(=O)O + CC(CO)NC(=O)c1cc(-c2ccc(Cl)cc2)nn(-c2cnn(C)c2)c1=O | 6.12 | > 10 | > 10 | > 10 | 3.59 | 77.5 | 73.2 | 82.6 | 79.4 | 58.1 | 44 | 61.6 | 58 | 76.6 | 66 | 52.5 | 44.5 | 59.7 | 67.1 | 72.7 | viability, T/C [16]: 73.8%; viability, T/C [17]: 71.5%; viability, T/C [18]: 47.4%; viability, T/C [19]: 55.7%; viability, T/C [20]: 55.4%; viability, T/C [21]: 60.3%; viability, T/C [22]: 61.6%; viability, T/C [23]: 56.9%; viability, T/C [24]: 41.8%; viability, T/C [25]: 66.6%; viability, T/C [26]: 58.7%; viability, T/C [27]: 70.2%; viability, T/C [28]: 54.4%; viability, T/C [29]: 52.2%; viability, T/C [30]: 38.9%
NS(=O)(=O)OCC1CC(n2ccc3c(NC4CCc5ccccc54)ncnc32)CC1O (stereo not given) + CC(CO)NC(=O)c1cc(-c2ccc(Cl)cc2)nn(-c2cnn(C)c2)c1=O | 3.42 | 2.91 | 3.16 | > 10 | > 10 | 112 | 133 | 96.5 | 65.9 | 44.6 | 51.8 | 127 | 115 | 92.5 | 58.5 | 47.3 | 49.7 | 125 | 127 | 118 | viability, T/C [16]: 69.2%; viability, T/C [17]: 48.2%; viability, T/C [18]: 50.6%; viability, T/C [19]: 133%; viability, T/C [20]: 129%; viability, T/C [21]: 108%; viability, T/C [22]: 69.2%; viability, T/C [23]: 54%; viability, T/C [24]: 59.3%; viability, T/C [25]: 86.2%; viability, T/C [26]: 104%; viability, T/C [27]: 103%; viability, T/C [28]: 76%; viability, T/C [29]: 62.6%; viability, T/C [30]: 63.6%
